Laboratory results reported in patent US20240270810A1, “PREPARATION AND APPLICATION OF POLYPEPTIDE” (GUANGDONG RAYNOVENT BIOTECH CO., LTD., priority 2021, published 2024).
*1 amine or outer side, *2 acyl side, *3 side chain or, on linkers, in order; H or OH if unused. Where a SMILES comes first, the peptide text is derived from it. Bridges are numbered along the chain shown (N, C = ends). [ ]: non-standard residue; d: D form. X1 = O=C(O)CCCCCCCCCCCCCCCCCCC(=O)N[C@@H](CCC(=O)NCCOCCOCC(=O)NCCOCCOCC(=O)N[C@@H](CCC(=O)[*:1])C(=O)[*:2])C(=O)O; Aib = CC(C)(N)C(=O)O

Key:
GLP-1R = target: T1, GLP-1R (Homo sapiens, UniProt P43220); assay: In vitro GLP-1R agonistic activity test (cAMP kit); type: cell-based; settings: HEK293 host cells
T1 construct: host or cells: HEK293
T1 sequence (P43220 24-463, species assumed): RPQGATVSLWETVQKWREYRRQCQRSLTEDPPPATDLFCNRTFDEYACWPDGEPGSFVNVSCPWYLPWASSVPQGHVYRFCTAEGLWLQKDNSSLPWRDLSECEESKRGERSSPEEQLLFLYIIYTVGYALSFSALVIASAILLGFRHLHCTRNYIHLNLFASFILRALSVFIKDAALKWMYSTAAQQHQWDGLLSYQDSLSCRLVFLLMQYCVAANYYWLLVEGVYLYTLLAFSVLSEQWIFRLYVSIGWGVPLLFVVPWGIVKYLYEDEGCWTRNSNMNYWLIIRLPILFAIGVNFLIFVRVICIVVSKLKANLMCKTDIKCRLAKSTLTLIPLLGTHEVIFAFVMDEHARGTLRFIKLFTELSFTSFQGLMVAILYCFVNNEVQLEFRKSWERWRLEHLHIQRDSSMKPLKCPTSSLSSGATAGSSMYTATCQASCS
Procedure: (§1) The cell lines were constructed by Wuxi […] (Shanghai) Co., Ltd. See details in Table 1 below. [table] [table] The test compounds were diluted at a 4-fold dilution factor in 10 points, starting from an initial concentration of 30 μM. The dilution was carried out by Bravo. • 1) 100 nL of compounds were transferred to an OptiPlate-384 plate by Echo. • 2) The OptiPlate-384 plate was centrifuged at 1000 rpm for 5 s. • 1) A GLP-1R/GIPR cell cryovial was placed in warm water at 37° C. for rapid thawing. • 2) The cell suspension was transferred into a 15 mL Transfer centrifugal tube and rinsed with 10 mL of HBSS gently. • 3) The centrifugal tube was centrifuged at 1000 rpm at room temperature for 1 min. • 4) The supernatant was discarded. • 5) The bottom cells were gently dispersed, then gently rinsed with 10 mL of HBSS, the centrifugal tube was centrifuged to settle the cells, and finally the cells were resuspended in an experimental buffer. • 6) Cell density and viability were measured by Vi-cell. • 7) The GLP-1R/GIPR cells were diluted with the experimental buffer to a concentration of 2.0*10^5/mL. • 8) […] of the diluted cell suspension was transferred into the OptiPlate-384 plate. • 9) Incubation was performed at room temperature for 30 min. • 1) 10 μL of 800 nM gradient diluted cAMP standard was added into the empty wells of the OptiPlate-384 plate. • 2) 10 μL of cAMP assay reagent was added. • 3) The OptiPlate-384 plate was covered with TopSeal-A film and incubated at room temperature for 60 min. The TopSeal-A film was removed, and readout was performed on En Vision.

GIPR = target: T2, GIPR (Homo sapiens, UniProt P48546); assay: In vitro GIPR agonistic activity test (cAMP kit); type: cell-based; settings: CHO host cells
T2 construct: host or cells: CHO
T2 sequence (P48546 22-466): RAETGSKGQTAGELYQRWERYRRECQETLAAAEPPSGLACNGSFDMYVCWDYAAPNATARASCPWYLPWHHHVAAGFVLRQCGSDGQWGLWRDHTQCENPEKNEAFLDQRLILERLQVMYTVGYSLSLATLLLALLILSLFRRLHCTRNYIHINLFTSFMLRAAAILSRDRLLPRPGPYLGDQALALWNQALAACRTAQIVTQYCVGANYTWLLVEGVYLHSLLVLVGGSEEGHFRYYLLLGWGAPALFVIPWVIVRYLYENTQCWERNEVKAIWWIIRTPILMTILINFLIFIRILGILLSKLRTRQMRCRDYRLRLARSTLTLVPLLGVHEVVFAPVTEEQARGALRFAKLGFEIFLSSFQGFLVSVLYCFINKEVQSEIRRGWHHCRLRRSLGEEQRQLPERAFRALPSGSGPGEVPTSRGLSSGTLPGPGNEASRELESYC
Procedure: as §1, with “[table] [table]” left out

| EC50 (GLP-1R; with 1% HSA) | EC50 (GLP-1R; without 1% HSA) | EC50 (GIPR; without 1% HSA) | EC50 (GIPR; with 1% HSA) | SMILES |
| --- | --- | --- | --- | --- |
| 14 nM | 0.54 nM | 1.07 nM |  | CC[C@H](C)[C@H](NC(=O)[C@H](CC(C)C)NC(=O)[C@H](Cc1c[nH]c2ccccc12)NC(=O)[C@@H]1CCCCNC(=O)CN(C(=O)COCCOCCNC(=O)COCCOCCNC(=O)CC[C@H](NC(=O)CCCCCCCCCCCCCCCCCCC(=O)O)C(=O)O)CC(=O)NCCCC[C@H](NC(=O)[C@H](CCC(N)=O)NC(=O)[C@H](C)NC(=O)[C@@H](NC(=O)[C@H](CCCCN)NC(=O)[C@H](CC(=O)O)NC(=O)[C@H](CC(C)C)NC(=O)C(C)(C)NC(=O)[C@@H](NC(=O)[C@H](CO)NC(=O)[C@H](Cc2ccc(O)cc2)NC(=O)[C@H](CC(=O)O)NC(=O)[C@H](CO)NC(=O)[C@@H](NC(=O)[C@H](Cc2ccccc2)NC(=O)[C@@H](NC(=O)CNC(=O)[C@H](CCC(=O)O)NC(=O)C(C)(C)NC(=O)[C@@H](N)Cc2ccc(O)cc2)[C@@H](C)O)[C@@H](C)O)[C@@H](C)CC)[C@@H](C)CC)C(=O)N[C@@H](C)C(=O)N[C@@H](Cc2ccccc2)C(=O)N[C@@H]([C@@H](C)CC)C(=O)N1)C(=O)N[C@@H](C)C(=O)NCC(=O)NCC(=O)N1CCC[C@H]1C(=O)N[C@@H](CO)C(=O)N[C@@H](CO)C(=O)NCC(=O)N[C@@H](C)C(=O)N1CCC[C@H]1C(=O)N1CCC[C@H]1C(=O)N1CCC[C@H]1C(=O)N[C@@H](CO)C(N)=O [WX-003] |
| 31.3 nM | 0.19 nM | 0.43 nM | 12.5 nM | CC[C@H](C)[C@H](NC(=O)[C@H](CC(C)C)NC(=O)[C@H](Cc1c[nH]c2ccccc12)NC(=O)[C@@H]1CCCCNC(=O)CN(C(=O)COCCOCCNC(=O)COCCOCCNC(=O)CC[C@H](NC(=O)CCCCCCCCCCCCCCCCCCC(=O)O)C(=O)O)CC(=O)NCCCC[C@H](NC(=O)[C@H](CCC(N)=O)NC(=O)[C@H](C)NC(=O)[C@@H](NC(=O)[C@H](CCCCN)NC(=O)[C@H](CC(=O)O)NC(=O)[C@H](CC(C)C)NC(=O)C(C)(C)NC(=O)[C@@H](NC(=O)[C@H](CO)NC(=O)[C@H](Cc2ccc(O)cc2)NC(=O)[C@H](CC(=O)O)NC(=O)[C@H](CO)NC(=O)[C@@H](NC(=O)[C@H](Cc2ccccc2)NC(=O)[C@@H](NC(=O)CNC(=O)[C@H](CCC(=O)O)NC(=O)C(C)(C)NC(=O)[C@@H](N)Cc2ccc(O)cc2)[C@@H](C)O)[C@@H](C)O)[C@@H](C)CC)[C@@H](C)CC)C(=O)N[C@@H](CCC(=O)O)C(=O)N[C@@H](Cc2ccccc2)C(=O)N[C@@H](C(C)C)C(=O)N1)C(=O)N[C@@H](C)C(=O)NCC(=O)NCC(=O)N1CCC[C@H]1C(=O)N[C@@H](CO)C(=O)N[C@@H](CO)C(=O)NCC(=O)N[C@@H](C)C(=O)N1CCC[C@H]1C(=O)N1CCC[C@H]1C(=O)N1CCC[C@H]1C(=O)N[C@@H](CO)C(N)=O [WX-002] |
|  | 0.024 nM | 0.17 nM |  | CC[C@H](C)[C@H](NC(=O)[C@H](CC(C)C)NC(=O)[C@H](Cc1c[nH]c2ccccc12)NC(=O)[C@H](CCC(=O)O)NC(=O)[C@@H](NC(=O)[C@H](Cc1ccccc1)NC(=O)[C@H](C)NC(=O)[C@@H]1CCCCNC(=O)CN(C(=O)COCCOCCNC(=O)COCCOCCNC(=O)CC[C@H](NC(=O)CCCCCCCCCCCCCCCCC(=O)O)C(=O)O)CC(=O)NCCCC[C@H](NC(=O)[C@H](CCCCN)NC(=O)[C@H](CC(=O)O)NC(=O)[C@H](CC(C)C)NC(=O)C(C)(C)NC(=O)[C@@H](NC(=O)[C@H](CO)NC(=O)[C@H](Cc2ccc(O)cc2)NC(=O)[C@H](CC(=O)O)NC(=O)[C@H](CO)NC(=O)[C@@H](NC(=O)[C@H](Cc2ccccc2)NC(=O)[C@@H](NC(=O)CNC(=O)[C@H](CCC(=O)O)NC(=O)C(C)(C)NC(=O)[C@@H](N)Cc2ccc(O)cc2)[C@@H](C)O)[C@@H](C)O)[C@@H](C)CC)C(=O)N[C@@H](C)C(=O)N[C@@H](CCC(N)=O)C(=O)N1)C(C)C)C(=O)N[C@@H](C)C(=O)NCC(=O)NCC(=O)N1CCC[C@H]1C(=O)N[C@@H](CO)C(=O)N[C@@H](CO)C(=O)NCC(=O)N[C@@H](C)C(=O)N1CCC[C@H]1C(=O)N1CCC[C@H]1C(=O)N1CCC[C@H]1C(=O)N[C@@H](CO)C(N)=O [WX-012] |
|  | 0.057 nM | 0.18 nM |  | CC[C@H](C)[C@H](NC(=O)[C@H](CC(C)C)NC(=O)[C@H](Cc1c[nH]c2ccccc12)NC(=O)[C@H](CCC(=O)O)NC(=O)[C@@H](NC(=O)[C@H](Cc1ccccc1)NC(=O)[C@H](C)NC(=O)[C@@H]1CCCCNC(=O)CN(C(=O)COCCOCCNC(=O)COCCOCCNC(=O)CC[C@H](NC(=O)CC[C@H](NC(=O)CCCCCCCCCCCCCCCCCCC(=O)O)C(=O)O)C(=O)O)CC(=O)NCCCC[C@H](NC(=O)[C@H](CCCCN)NC(=O)[C@H](CC(=O)O)NC(=O)[C@H](CC(C)C)NC(=O)C(C)(C)NC(=O)[C@@H](NC(=O)[C@H](CO)NC(=O)[C@H](Cc2ccc(O)cc2)NC(=O)[C@H](CC(=O)O)NC(=O)[C@H](CO)NC(=O)[C@@H](NC(=O)[C@H](Cc2ccccc2)NC(=O)[C@@H](NC(=O)CNC(=O)[C@H](CCC(=O)O)NC(=O)C(C)(C)NC(=O)[C@@H](N)Cc2ccc(O)cc2)[C@@H](C)O)[C@@H](C)O)[C@@H](C)CC)C(=O)N[C@@H](C)C(=O)N[C@@H](CCC(N)=O)C(=O)N1)C(C)C)C(=O)N[C@@H](C)C(=O)NCC(=O)NCC(=O)N1CCC[C@H]1C(=O)N[C@@H](CO)C(=O)N[C@@H](CO)C(=O)NCC(=O)N[C@@H](C)C(=O)N1CCC[C@H]1C(=O)N1CCC[C@H]1C(=O)N1CCC[C@H]1C(=O)N[C@@H](CO)C(N)=O [WX-013] |

| SMILES | EC50 (GLP-1R; with 1% HSA) | EC50 (GLP-1R; without 1% HSA) | EC50 (GIPR; without 1% HSA) | EC50 (GIPR; with 1% HSA) |
| --- | --- | --- | --- | --- |
| CC[C@H](C)[C@H](NC(=O)[C@H](CC(C)C)NC(=O)[C@H](Cc1c[nH]c2ccccc12)NC(=O)[C@H](CCC(=O)O)NC(=O)[C@@H](NC(=O)[C@H](Cc1ccccc1)NC(=O)[C@H](C)NC(=O)[C@@H]1CCCCNC(=O)[C@@H](NC(=O)COCCOCCNC(=O)COCCOCCNC(=O)CC[C@H](NC(=O)CCCCCCCCCCCCCCCCCCC(=O)O)C(=O)O)CCC(=O)NCCCC[C@H](NC(=O)[C@H](CCCCN)NC(=O)[C@H](CC(=O)O)NC(=O)[C@H](CC(C)C)NC(=O)C(C)(C)NC(=O)[C@@H](NC(=O)[C@H](CO)NC(=O)[C@H](Cc2ccc(O)cc2)NC(=O)[C@H](CC(=O)O)NC(=O)[C@H](CO)NC(=O)[C@@H](NC(=O)[C@H](Cc2ccccc2)NC(=O)[C@@H](NC(=O)CNC(=O)[C@H](CCC(=O)O)NC(=O)C(C)(C)NC(=O)[C@@H](N)Cc2ccc(O)cc2)[C@@H](C)O)[C@@H](C)O)[C@@H](C)CC)C(=O)N[C@@H](C)C(=O)N[C@@H](CCC(N)=O)C(=O)N1)C(C)C)C(=O)N[C@@H](C)C(=O)NCC(=O)NCC(=O)N1CCC[C@H]1C(=O)N[C@@H](CO)C(=O)N[C@@H](CO)C(=O)NCC(=O)N[C@@H](C)C(=O)N1CCC[C@H]1C(=O)N1CCC[C@H]1C(=O)N1CCC[C@H]1C(=O)N[C@@H](CO)C(N)=O [WX-011] (H-Y[Aib]EGTFTSDYSI[Aib]LDKKAQKAFVEWLIAGGPSSGAPPPS-NH2; linker 17-20 via X1) |  | 0.018 nM | 0.25 nM |  |
